The subject of series [1] is HIV-1RT. The series is described as follows: microbe, parasite or virus in culture. Format: cell-based. The following applies: for EC50: Human immunodeficiency virus 1, CEM-GXR, 96 h, read-out: EC50 HIV-1RT.
Protocol: CEM-GXR cells are an immortalized CD4+ T-lymphocyte line engineered that naturally express the HIV-1 coreceptor CXCR4 and have been further engineered to express the HIV-1 co-receptor CCR5 and a Tat-driven LTR-GFP expression cassette. As such, intracellular GFP expression indicates HIV-1 infection [26]. Cultures of 10^5 CEM-GXR cells were seeded into 96-well plates with RPMI-1640 media (Sigma) supplemented with penicillin/streptomycin plus 20% fetal calf serum (R20+), infected with HIV-1 at a multiplicity of infection of 0.03 (to achieve 3% infected cells on Day 2), and incubated at 37°C and 5% CO2. 24 hours later, cells were pelleted at 750 g and resuspended in R20+ containing compound or 0.1% DMSO. […] Cells were then incubated at 37°C and 5% CO2 for an additional 72 h. 5,000 cells from each culture were measured for cell toxicity and GFP expression by flow cytometry. […] Background GFP expression in uninfected cultures was set at 0.05% GFP-positive cells. For each experiment, all data points were obtained in triplicate. All data are reported as the mean ± s.e.m. from at least 3 independent experiments performed with different virus stocks and/or performed on different days. […] EC50 and CC50 values for each compound were calculated from at least four concentrations. Statistical analyses were performed using Student’s unpaired t test, with a p value < 0.05 plus a Bonferroni correction to adjust for multiple comparisons considered significant.
Series [2] has as its system HIV-1NL4-3. The series is described as follows: HIV-1 replication assay in PBMCs (p24Gag ELISA). The format is cell-based. The following applies: Day 12. The procedure: PBMCs from HIV-1 negative subjects, purchased commercially (StemCell Technologies, Vancouver, Canada), were maintained in RPMI-1640 media (Sigma) supplemented with penicillin/streptomycin plus 10% fetal calf serum (R10+). 72 h prior to viral infection, PBMCs were stimulated by addition of 5 μg/mL phytohaemaglutanin (PHA) (Day 0) and maintained in R10+ medium supplemented with 100 units/mL human IL-2. At Day 3 following cellular activation, 3x10^5 cells were infected with HIV-1NL4-3 at a multiplicity of infection of 0.003 (0.3% infected cells) and incubated at 37°C for 6h, followed by wash and re-suspension in fresh R10+ medium supplemented with 100 units/mL human IL-2 and with or without compounds at defined concentrations. Culture supernatants were collected and replaced with fresh medium supplemented with human IL-2 every 3 days (i.e., Days 6, 9, and 12) with or without fresh compounds. Viral replication at day 12 was monitored by measuring cell culture supernatant levels of p24^Gag by ELISA (XpressBio, Frederick, MD) following manufacturer’s instructions.
(In general: In an ELISA, binding on a coated surface is turned into a signal by an enzyme label.)

Series [3] has as its system HCV J4(1b)/JFH1(2a) chimera. Nature of the series: HCV replication assay in Huh-7.5 cells (NS5A flow cytometry). Format: cell-based. The following applies: Hepatitis C virus, Huh7.5, 72 h. The procedure:
The intergenotypic chimeric HCV used in this study—Bi-Gluc-J4(1b)/JFH1(2a) containing cell culture adaptive mutations in NS2 (T2996C) and NS3 (A4827T)—was previously described and subsequently modified to express Gaussia luciferase in the first cistron. HCV stocks used for infection were generated by electroporation of in vitro transcribed RNA into Huh-7.5.1 cells and pooling of supernatants harvested between 60–96 hr post-electroporation. HCV infectivity was determined by limiting dilution assay as previously described.
HCV cell culture was performed as described previously. Briefly, 4*10^4 Huh-7.5 cells were seeded into 24-well plates and incubated at 37°C and 5% CO2 overnight. Cells were then infected with HCV (multiplicity of infection = 0.3) for 6 hours, followed by removal of HCV and incubation with fresh medium containing compounds at stated concentrations. Cultures were then incubated for 72 hours, with no more than 0.1% DMSO present in culture medium. Cells were then trypsinized, resuspended in culture medium, and stained with the 9E10 alexa-fluor-conjugated antibody to NS5A [27]. Cells were fixed and analyzed for NS5A fluorescence by flow cytometry, and data were analyzed using FlowJo software. […] For each culture, NS5A fluorescence was determined as the percent gated cells relative to percent gated cells in infected cultures plus 0.1% DMSO. All experiments were performed in at least duplicate in at least two independent experiments.
We therefore assessed the effects of ixoratannin A-2, boldine, and BIT-225 on replication of HCV, which also encodes a viral ion channel and protease. Using an established cell culture system, Huh-7.5 cells were infected with an intergenotypic chimera between the J4 (genotype 1b) and JFH1 (genotype 2a) strain of HCV for 6 hours, followed by incubation with fresh medium containing compounds at defined concentrations. Infected cells were then incubated for an additional 72 hours. NS5A expression, a marker of HCV infection, was then detected by flow cytometry.
On the technique in general: In flow cytometry, cells or beads pass a laser one at a time.

The subject of series [4] is HIV-1NL4-3. The series is described as follows: microbe, parasite or virus in culture. Format: cell-based. The following applies: for selectivity index (SI): CC50 over EC50 in CEM-GXR cells; for EC50: read-out: HIV-1NL4-3 inhibition (EC50); for percent GFP-positive (HIV-infected) cells: 100 μM. The procedure:
CEM-GXR cells are an immortalized CD4+ T-lymphocyte line engineered that naturally express the HIV-1 coreceptor CXCR4 and have been further engineered to express the HIV-1 co-receptor CCR5 and a Tat-driven LTR-GFP expression cassette. As such, intracellular GFP expression indicates HIV-1 infection. Cultures of 10^5 CEM-GXR cells were seeded into 96-well plates with RPMI-1640 media (Sigma) supplemented with penicillin/streptomycin plus 20% fetal calf serum (R20+), infected with HIV-1 at a multiplicity of infection of 0.03 (to achieve 3% infected cells on Day 2), and incubated at 37°C and 5% CO2. 24 hours later, cells were pelleted at 750 g and resuspended in R20+ containing compound or 0.1% DMSO. […] Cells were then incubated at 37°C and 5% CO2 for an additional 72 h. 5,000 cells from each culture were measured for cell toxicity and GFP expression by flow cytometry. Flow cytometry data were analyzed using FlowJo v. 8.8.7 software (FlowJo LLC, Ashland, OR). […] Background GFP expression in uninfected cultures was set at 0.05% GFP-positive cells. For each experiment, all data points were obtained in triplicate. All data are reported as the mean ± s.e.m. from at least 3 independent experiments performed with different virus stocks and/or performed on different days. However, all experiments that compare HIV-1NL4-3 and mutant HIV-1 were performed in parallel. EC50 and CC50 values for each compound were calculated from at least four concentrations. Statistical analyses were performed using Student’s unpaired t test, with a p value < 0.05 plus a Bonferroni correction to adjust for multiple comparisons considered significant.
To assess the effects of these eight compounds on cell viability and HIV-1 replication, we infected a GFP-reporter CEM CD4+ T cell line (CEM-GXR) with the NL4-3 strain of HIV-1 (HIV-1NL4-3). Briefly, cells were infected with HIV-1NL4-3 at a multiplicity of infection of 0.03 (Day 0), followed by removal of HIV-1 and addition of compound (or 0.1% DMSO vehicle control) 24 hours later (Day 1) and incubation for an additional 72 hours to allow HIV-1 spread (Days 2–4). On Days 2 and/or 4, the percent HIV-1 infected (i.e., GFP-expressing) cells was measured by flow cytometry. Cell viability was assessed by measuring the percentage of cells displaying normal forward- and side-scatter parameters in drug-treated, HIV-1 infected cultures compared to 0.1% DMSO-treated, HIV-1 infected control cultures. […] HIV-1NL4-3 replication was unaffected by the presence of 0.1% DMSO vehicle control (Fig. 2B).

The subject of series [5] is hERG potassium channel. More on the design: method as in PMID 24963621. The following applies: two electrode voltage clamp, Xenopus oocytes; read-out: IC50 hERG potassium channel currents; cited from earlier work. For orientation: In two-electrode clamp one electrode senses voltage and the other passes current.
The mark [6] stands for this setting: read-out: inhibition of HCV replication.

Like-named read-outs stand apart in the source and are kept apart here.

The EC50 is the concentration needed to bring the measured effect to its halfway point. As usually defined, the inhibition is the change of the read-out against control, counted positive when it falls. Usually IC50 stands for the concentration that gives 50% inhibition.

In the case of `Oc1cc(O)c2c(c1)OC1(c3ccc(O)c(O)c3)Oc3c4c(c5c(c3C2C1O)OC1(c2ccc(O)c(O)c2)Oc2cc(O)cc(O)c2C5C1O)OC(c1ccc(O)c(O)c1)C(O)C4` (stereo not drawn) [ixoratannin A-2], the EC50 in series [1] is 33.7 µM; in series [3] (read-out: EC50 HCV replication) it was 23 µM; in series [4] (Human immunodeficiency virus 1, 96 h, CEM-GXR cells, Day 4), 34.4 µM. In addition, the “reduced HIV-1 replication in PBMCs (p24Gag)” value in series [2] (25 μM) is given as 39.0%. In addition, the inhibition at 30 µM in series [3] (setting [6]) is above 50%. The “selectivity index (SI)” value in series [4] is on record as 1.7.

For the compound `COc1cc2c(cc1O)C[C@H]1c3c(cc(O)c(OC)c3-2)CCN1C` [boldine], the EC50 in series [1] was above 100 µM; in series [4] (Human immunodeficiency virus 1, CEM-GXR, 96 h), 50.2 µM. In series [1] (concentrations up to 75 or 100 μM, CEM-GXR cells), the “inhibition of HIV-1RT” value is given as below 50%. In series [2] (100 μM), the “reduced HIV-1 replication in PBMCs (p24Gag)” value is listed as 47.0%. For the same compound, in series [3] (setting [6]), the inhibition at 50 µM came out at 36%. The “percent GFP-positive (HIV-infected) cells” value is given as 2.17% in series [4] (Day 2, HIV-1NL4-3-infected CEM-GXR cells (infected control 3.14)) and 4.09% in series [4] (Day 4, HIV-1NL4-3-infected CEM-GXR cells (infected control 10.80)). The “selectivity index (SI)” value in series [4] is 4.1. Besides, the IC50 in series [5] was 19.3 µM.

Source of the values: paper PMC4382154, “Screening of the Pan-African Natural Product Library Identifies Ixoratannin A-2 and Boldine as Novel HIV-1 Inhibitors” (PLoS ONE, 2015).
